According to patent publication US10301320B2, “Compositions and methods of modulating 15-PGDH activity” (CASE WESTERN RESERVE UNIVERSITY, priority 2012, dated 2019):
“Also recorded” adds a separate entry of the source.

Columns and labels:
[1] = tested on: 15-PGDH mRNA in colon cancer cell lines; experiment: 15-PGDH mRNA levels by real-time PCR; assay type: cell-based
Source text: In these studies parental cell lines (not containing the 15-PGDH-luciferase reporter) are employed.

[2] = tested on: A549 cells; experiment: PGE2 levels in medium of IL1-beta stimulated A549 cells; assay type: cell-based
[3] = tested on: C57BL/6J mice; experiment: Survival after whole body irradiation; assay type: in vivo
[4] = tested on: FVB male mice; experiment: Dextran sodium sulfate (DSS) induced colitis; assay type: in vivo

SMILES: CCCC[S+]([O-])c1sc2nc(-c3cccs3)cc(-c3ccccc3)c2c1N (stereo not drawn) [SW033291, 2-(butylsulfinyl)-4-phenyl-6-(thiophen-2-yl)thieno[2,3-b]pyridin-3-amine]
- 15-PGDH mRNA levels ([1]; V503 cells): slight increase in 15-PGDH mRNA
- 15-PGDH mRNA levels ([1]; treated colon cancer cell lines, real-time PCR): do not in general alter 15-PGDH mRNA levels
- PGE2 levels in the medium, ranking ([2]; 100 nM drug, 15-PGDH inhibitors): next highest level of PGE2
- Effect on PGE2 levels in medium, in words ([2]; IL1-beta stimulated A549 cells): clear inhibition of 15-PGDH activity
- PGE2 levels achieved ([2]; IL-1β 16 h, compound 8 h, highest level of titration): 3000 pg/mL
- Survival longer than vehicle control ([3]; 11 Gy, 5 mg/kg IP daily for 7 doses): 48 h
- Survival longer than vehicle control, on average ([3]; 11 Gy, any of the dosing schedules): 1 to 2 days
- Number of mice surviving ([3]; Table 7, 7 Gy, Day 5): 3
- Number of mice surviving ([3]; Table 7, 7 Gy, Day 6): 3
- Number of mice surviving ([3]; Table 7, 7 Gy, Day 7): 3
- Number of mice surviving ([3]; Table 7, 7 Gy, Day 8): 3
- Number of mice surviving ([3]; Table 7, 7 Gy, Day 9): 3
- Number of mice surviving ([3]; Table 7, 7 Gy, Day 10): 3
- Number of mice surviving ([3]; Table 7, 7 Gy, Day 11): 3
- Number of mice surviving ([3]; Table 7, 7 Gy, Day 12): 3
- Number of mice surviving ([3]; Table 7, 7 Gy, Day 13): 3
- Number of mice surviving ([3]; Table 7, 7 Gy, Day 14): 3
- Number of mice surviving ([3]; Table 7, 7 Gy, Day 15): 3
- Condition of surviving mice ([3]; Table 7, 7 Gy, Day 25 (Looks Healthy)): Healthy
- Number of mice surviving ([3]; Table 7, 9 Gy, Day 5): 3
- Number of mice surviving ([3]; Table 7, 9 Gy, Day 6): 3
- Number of mice surviving ([3]; Table 7, 9 Gy, Day 7): 3
- Number of mice surviving ([3]; Table 7, 9 Gy, Day 8): 3
- Number of mice surviving ([3]; Table 7, 9 Gy, Day 9): 3
- Number of mice surviving ([3]; Table 7, 9 Gy, Day 10): 3
- Number of mice surviving ([3]; Table 7, 9 Gy, Day 11): 3
- Number of mice surviving ([3]; Table 7, 9 Gy, Day 12): 2
- Number of mice surviving ([3]; Table 7, 9 Gy, Day 13): 2
- Number of mice surviving ([3]; Table 7, 9 Gy, Day 14): 1
- Number of mice surviving ([3]; Table 7, 9 Gy, Day 15): 0
- Number of mice surviving ([3]; Table 7, 11 Gy, Day 5): 3
- Number of mice surviving ([3]; Table 7, 11 Gy, Day 6): 3
- Number of mice surviving ([3]; Table 7, 11 Gy, Day 7): 3
- Number of mice surviving ([3]; Table 7, 11 Gy, Day 8): 3
- Number of mice surviving ([3]; Table 7, 11 Gy, Day 9): 2
- Number of mice surviving ([3]; Table 7, 11 Gy, Day 10): 0
- Number of mice surviving ([3]; Table 8, 11 Gy, 1 dose daily for 7 days, Day 5): 3
- Number of mice surviving ([3]; Table 8, 11 Gy, 1 dose daily for 7 days, Day 6): 3
- Number of mice surviving ([3]; Table 8, 11 Gy, 1 dose daily for 7 days, Day 7): 3
- Number of mice surviving ([3]; Table 8, 11 Gy, 1 dose daily for 7 days, Day 8): 2
- Number of mice surviving ([3]; Table 8, 11 Gy, 1 dose daily for 7 days, Day 9): 1
- Number of mice surviving ([3]; Table 8, 11 Gy, 1 dose daily for 7 days, Day 10): 0
- Number of mice surviving ([3]; Table 8, 11 Gy, 1 dose daily, continuous every day, Day 5): 3
- Number of mice surviving ([3]; Table 8, 11 Gy, 1 dose daily, continuous every day, Day 6): 3
- Number of mice surviving ([3]; Table 8, 11 Gy, 1 dose daily, continuous every day, Day 7): 3
- Number of mice surviving ([3]; Table 8, 11 Gy, 1 dose daily, continuous every day, Day 8): 3
- Number of mice surviving ([3]; Table 8, 11 Gy, 1 dose daily, continuous every day, Day 9): 2
- Number of mice surviving ([3]; Table 8, 11 Gy, 1 dose daily, continuous every day, Day 10): 0
- Number of mice surviving ([3]; Table 8, 11 Gy, 7 days, 2 dose daily, Day 5): 3
- Number of mice surviving ([3]; Table 8, 11 Gy, 7 days, 2 dose daily, Day 6): 3
- Number of mice surviving ([3]; Table 8, 11 Gy, 7 days, 2 dose daily, Day 7): 3
- Number of mice surviving ([3]; Table 8, 11 Gy, 7 days, 2 dose daily, Day 8): 3
- Number of mice surviving ([3]; Table 8, 11 Gy, 7 days, 2 dose daily, Day 9): 2
- Number of mice surviving ([3]; Table 8, 11 Gy, 7 days, 2 dose daily, Day 10): 0
- Body weight versus control, in words ([4]; 5 mg/kg IP twice daily): greater weight at all time points; also recorded: greater body weight
- Ulcer formation ([4]; colonoscopy days 8, 11, 15): prevents two-thirds of ulcer formation
- Colon length versus control, in words ([4]; day 22): greater colon lengths
